Assay results: patent US4332802A, “11-Oxo-11H-pyrido[2,1-b]quinazoline-2-carboxylic acid and salts thereof, antiallergic compositions containing it and methods of suppressing allergic reactions with it” (Boehringer Ingelheim KG, priority 1975, dated 1982)
Read-outs that look alike come from different tables or passages of the source.

How the values were obtained:
[1] = test system: anaphylactoid dextran reaction in the rat paw; experiment: Dextran edema test (anaphylactoid dextran reaction, paw swelling); assay type: in vivo; conditions: for ED35: 0.5 h, rat, graphic extrapolation; for % Inhibition of swelling: rat paw, dextran, dose of 100 mgm/kg (p.o.)
Source text: The antiallergic activity of the compounds of the present invention was ascertained and compared to that of structurally related known compounds by the anaphylactic dextran reaction method, where
Dextran induces in the rat a de-granulation of mast cells and thus the release of mediator substances such as histamine and serotonin, with consequent edema formation. The reaction manifests itself in a manner similar to anaphylaxis [see Morrison et al., J.exp.Med. 103, 399 (1956)].
Fasted male laboratory rats (Chbb:Thom.SPF) having a body weight of 120-180 gm were used as the test animals; they were initially kept in wire cages, and after provocation of the reaction on chaff. The allergic reaction was released by subplantar injection into the right hind paw of 100 μgm of dextran (mol. wt. 60,000) in 0.1 ml of physiological sodium chloride solution. The degree of inflammatory swelling was determined by dorso-plantar measurement of the thickness of the paw [see Doepfner et al., Int. Arch. Allergy 12, 89 (1958)] in 1/100 mm; swelling was defined as the difference between the paw thickness 30 minutes after the dextran injection and the paw thickness before the dextran injection. For the dextran injection and the paw thickness measurements the animal was placed under light general anesthesia with ether (etherrausch).
The test compound was administered shortly before release of the allergic reaction in sodium chloride solution i.v. (0.5 ml/100 gm body weight), or 10 minutes before in 1% tylose 2000 p.o. (1 ml/100 gm body weight). Control animals received only the vehicle.
From the raw data thus obtained the percentage of swelling inhibition was calculated from the average paw swelling in the treated animals (T) and in the control animals (K) in accordance with the formula [formula] By graphic extrapolation the dose of test compound was determined which produced a 35% reduction of the swelling (ED35). For graphic representation of percentage inhibition values the standard error (sx --) was determined according to Fenner, Naturwissenschaften 19, 310 (1931).
For the anaphylactoid dextran reaction in the rat paw the following values were obtained at a dose of 100 mgm/kg: […]

[2] = Absorption: quotient ED35 p.o./ED35 i.v. from the dextran edema test; conditions: in vivo; rat; the smaller the quotient, the better the absorption
Source text: For the efficacy of a pharmaceutical which is to be administered perorally, the absorption is of particular advantage. Conclusions regarding the absorption can be drawn from a comparison of the ED35 --values p.o. and i.v.; the smaller the quotient ED35 p.o./ED35 i.v., the better the absorption.

[3] = iv, i.v., shortly before dextran, sodium chloride solution, read-out: ED35 i.v. (dose producing 35% reduction of the swelling)
[4] = po, p.o., 10 minutes before dextran, 1% tylose, read-out: ED35 p.o. (dose producing 35% reduction of the swelling)

| Structure (SMILES) | ED35 [1, 3] [mg/kg] | ED35 [1, 4] [mg/kg] | ED35 p.o./i.v. ratio (absorption) [2] | % Inhibition of swelling [1] [%] |
| --- | --- | --- | --- | --- |
| O=C(O)c1ccc2nc3ccccn3c(=O)c2c1 [A, 11-Oxo-11H-pyrido[2,1-b]quinazoline-2-carboxylic acid] | 2.1 | 4 | 1.9 |  |
| O=C(O)c1cccc2nc3ccccn3c(=O)c12 [B, 11-Oxo-11H-pyrido[2,1-b]quinazoline-1-carboxylic acid] |  |  |  | 0 |
| O=C(O)c1cccc2c(=O)n3ccccc3nc12 [C, 11-Oxo-11H-pyrido[2,1-b]quinazoline-4-carboxylic acid] |  |  |  | 10 |
| O=C(O)c1ccn2c(=O)c3ccccc3nc2c1 [D, 11-Oxo-11H-pyrido[2,1-b]quinazoline-7-carboxylic acid] |  |  |  | 38 |
| O=C(O)c1ccc2nc3ccccc3c(=O)n2c1 [E, 11-Oxo-11H-pyrido[2,1-b]-quinazoline-8-carboxylic acid] | 1.1 | 4.4 | 4 |  |
